{"source": "paper PMC4408927", "about": "(Nature, 2015)", "origin": "cited, not measured here", "key": {"[1]": {"test": "not given", "remark": "listed apart in the source"}}, "data": [{"smiles": "CC(C)(C)c1ccccc1Oc1ncccc1NC(=O)Nc1ccc(OC(F)(F)F)cc1", "note": "[BPTU, 1-(2-(2-(tert-butyl)phenoxy)pyridin-3-yl)-3-(4-(trifluoromethoxy)phenyl)urea]", "values": [{"measurement": "Effect on bleeding", "result": "minimal effect"}, {"measurement": "Platelet aggregation", "setting": "platelet aggregation", "result": "substantially reduces"}]}, {"smiles": "CNc1nc(I)nc2c1ncn2[C@H]1C[C@H](OP(=O)(O)O)[C@]2(COP(=O)(O)O)C[C@H]12", "note": "[MRS2500, (1′R,2′S,4′S,5′S)-4-(2-Iodo-6-methylaminopurin-9-yl)-1-[(phosphato)methyl]-2(phosphato)bicycle[3.1.0]-hexane]", "values": [{"measurement": "Arterial thrombosis", "setting": "[1]", "result": "effectively reduces"}, {"measurement": "Bleeding time", "result": "moderate prolongation"}, {"measurement": "ADP-induced platelet aggregation", "setting": "platelet aggregation", "result": "completely blocks"}]}]}
